Assay results taken from patent US10822317B2, “Methods and compositions for wound healing” (QBiotics Limited, priority 2013, dated 2020).

Experiments:
[1] = test system: human peripheral blood mononuclear cells (PBMCs); assay: Cytokine production by PBMCs (Cytometric Bead Array); assay type: cell-based; settings: 24 hr, ± standard deviation
Description: Specific cytokines play critical roles in wound healing processes, and agents that modulate these substances may be useful in treating wounds and/or improving the cosmetic outcomes of healing (e.g. reduced scarring). The effects of Compounds 1, 2, 5 and 42 on regulation of four cytokines (IL-1β, IL-6, IL-8 and TNFα) known to be critical in early stages of the wound healing process were investigated in human peripheral blood mononuclear cells (PBMCs).
PBMCs were isolated by Ficoll-Paque sedimentation of heparinised blood acquired from both a person (Donor 1) and (Donor 2) human donor. All cells were cultured in 10% FCS, RPMI as detailed previously.
PBMCs were seeded at a density of 1.5×10^5 cells per well in 10% FCS, RPMI. Stimulation of these cells with the four compounds was performed at four concentrations (0 ng/mL, 3 ng/mL, 30 ng/mL, 300 ng/mL) in duplicate for 24 h in a humidified incubator at 37° C., 5% CO2. Media samples were taken from each of the required wells and frozen at −80° C. until use.
Cytometric Bead Array (CBA) assays were used to measure the results. CBA assays provide a method for capturing a soluble analyte or set of analytes using antibody coated beads of known sizes and fluorescence. Detection is then performed using another fluorescently labelled secondary antibody to form a sandwich complex. Each media sample was assayed for the presence of soluble […], IL-6, IL-8, IL-10, IL-12p70 and TNFα using a BD (Becton Dickinson) CBA Human Inflammatory Cytokine Detection Kit according to manufacturers' instructions. Mean fluorescence intensity values from each sample were compared against a standard curve to determine cytokine concentrations (pg/mL).

[2] = test system: mouse skin; assay: Acute inflammatory response in mouse skin; assay type: in vivo; settings: male nude mice, s.c. 50 μL of 100 μg/mL; for scarring of the healed site: 14 days; for diameter of affected area of skin: by 24 hr
Experimental: Male nude mice were injected subcutaneously on each flank with 50 μL of solutions of 100 μg/mL of Compounds 1, 2, 5 and 42 respectively in 20% propylene glycol. Each site reddened within 4 hr and by 24 hr the affected area covered approximately 1 cm diameter of skin.

[3] = test system: human neonatal fibroblasts; assay: Matrigel invasion assay for migratory ability; assay type: cell-based; settings: 30 ng/mL; 24 hrs; fibroblasts starved 2 days, 1% foetal calf serum; ± standard deviation, two replicate experiments
Description: Matrigel invasion chambers provide cells with the conditions that allow assessment of their invasive property in vitro. The Matrigel invasion chambers consists of a cell culture companion plate with cell culture inserts containing an 8 micron pore size PET membrane with a thin layer of Matrigel Basement Membrane Matrix. The Matrigel matrix serves as a reconstituted basement membrane in vitro. The layer occludes the pores of the membrane, blocking non-invasive cells from migrating through the membrane. In contrast, invasive cells are able to detach themselves from and invade through the Matrigel matrix and the 8 micron membrane pores. The membrane may be processed for light and electron microscopy and can be easily removed after staining.
The chambers were used according to the manufacturer's instructions, as described below in two studies, to assess the effects of Compounds 1, 2, 5 and 42 on migration of human neonatal fibroblasts. The first study assessed effects of three concentrations (0, 10 and 30 ng/mL) of Compound 1 on neonatal fibroblasts in wells containing media with 10% foetal calf serum. The second study used two concentrations (0 and 30 ng/mL) for each of Compounds 1, 2, 5 and 42 to examine effects on migration of neonatal fibroblasts starved for 2 days prior to treatment and then transferred to media with 1% foetal calf serum.
The package containing the chambers was removed from −20° C. storage and allowed to come to room temperature. Warm (37° C.) bicarbonate based culture medium was added to the interior of the inserts (500 μL) and bottom of wells (750 μL). The chambers containing the Matrigel were allowed to rehydrate for 2 hours in humidified tissue culture incubator, 37° C., 5% CO2 atmosphere. After rehydration, the medium was carefully removed by aspiration without disturbing the layer of Matrigel™ Matrix on the membrane.
Cells were harvested, and resuspended at 20,000 cells per mL. A total of 250 μL of the cell suspension was placed into the interior of the insert (5,000 cells). An extra 250 μL media containing the respective Compounds was then added to the interior of the insert to give the desired final concentrations for each of the two studies. A total of 750 μL of media containing appropriate concentrations of each compound in each treatment were placed in the well under the appropriate insert. The Matrigel chambers were then incubated for 24 hours in a humidified tissue culture incubator, at 37° C., 5% CO2 atmosphere.
Non-invading cells were removed from the upper surface of the membrane by “scrubbing”. A cotton tipped swab was dipped into the insert after removal of the media, and firm pressure applied while the tip was moved over the membrane surface. The scrubbing was repeated with a second swab moistened with PBS. Cells that had invaded to the external surface of the insert were then fixed by placing in […] of 100% methanol for at least 5 mins. Inserts were then transferred to a companion plate containing 500 μL of 0.1% crystal violet in methanol, and stained for at least 15 mins. Inserts were destained by passage through 3 companion plates containing 500 μL water, before being air dried.
The following day, the membrane was removed from the insert housing by inverting the insert and inserting the tip of a sharp scalpel blade through the membrane at the edge adjacent to the housing wall. The insert housing was rotated against the stationary blade and the membrane was released. […]

[4] = test system: human peripheral blood monocytes; assay: Differentiation of monocytes into macrophages; assay type: cell-based; settings: 10-fold dilutions; 4 days; adherence and morphology
Experimental: To determine potential effects of Compound 1 and fifteen other epoxy-tigliane compounds in the array on monocyte differentiation, human peripheral blood mononuclear cells (PBMCs) were isolated by Ficoll-Paque sedimentation of heparinised blood from a human donor, and plated at 100,000 cells/well in RPMI-1640 10% FCS. Duplicate wells were treated with 10-fold dilutions of the compounds and incubated at 37° C. for 4 days. The wells were scored visually for cell attachment and morphology, then washed twice with PBS, stained with sulfurhodamine and the incorporate stain quantitated in an ELISA reader. The plates were then washed with water and stained with 1% crystal violet in methanol for photography and scoring of adherent cell morphology.

[5] = test system: human neonatal fibroblasts; assay: Scratch closure, human neonatal fibroblasts, Method 3 (IncuCyte); assay type: cell-based
Experimental: (§1) The ability of early. passage neonatal foreskin fibroblasts (NFF) cultured in RPMI 1640-10% foetal calf serum to migrate across a scratch wound made in a confluent monolayer following treatment with purified compounds or plant extracts was determined using one or more of the following three methods.
Cells were seeded and treated in 96-well plates as in Method 2 (5 replicate wells per dilution), except that the scratches were made in one action with a tool having 96, 1 mm thick teflon coated pins (Essen Bioscience Woundmaker). The plate was then placed in a 37° C., 5% CO2 humidified atmosphere in an IncuCyte FLR instrument programmed to photograph each well under phase contrast at 3 hr intervals for 42 hours. The software determined the initial scratch boundaries and their rate of closure. Accelerated wound closure was considered to be significant if the initial rate of closure was >10% of the untreated controls.

[6] = test system: human neonatal fibroblasts; assay: Scratch closure, human neonatal fibroblasts, Method 2; assay type: cell-based
Experimental: as §1
Cells were seeded in 6 mm wells (96-well plates) or 16 mm (24-well plates), with 2 to 6 replicate wells/dilution, and treated as in Method 1. Immediately after treatment, the scratch edges were outlined on the underside of the well with a fine point felt pen. After fixing and staining, migration was assessed under the microscope with the aid of a graticule, scoring migration as 0, 25, 50, 75 or 100% (total closure) of the initial width. Accelerated wound closure was considered to be significant if mean quartile of replicates was […] that of untreated controls (p<0.05, t-test). In addition, “wound” areas were created by seeding cells in the presence of 3 mm stainless steel pins (96-well plate), or by inserting flat-edged Teflon rings. These devices were removed after overnight incubation of the NFF cells.

12,13-di-hexanoyl-6,7-epoxy-4,5,9,12,13,20-hexahydroxy-1-tigliaen-3-one [Compound 42]
IL-1β level ([1]; Donor 1, 3 ng/mL): 2.6 ± 0.6 pg/mL
IL-6 level ([1]; Donor 1, 3 ng/mL): 8.1 ± 6.4 pg/mL
IL-8 level ([1]; Donor 1, 3 ng/mL): 3013 ± 377 pg/mL
TNFα level ([1]; Donor 1, 3 ng/mL): 45.8 ± 55.2 pg/mL
IL-1β level ([1]; Donor 1, 30 ng/mL): 16.8 ± 1.2 pg/mL
IL-6 level ([1]; Donor 1, 30 ng/mL): 32.1 ± 6.7 pg/mL
IL-8 level ([1]; Donor 1, 30 ng/mL): 16389 ± 884 pg/mL
TNFα level ([1]; Donor 1, 30 ng/mL): 271.9 ± 22.4 pg/mL
IL-1β level ([1]; Donor 1, 300 ng/mL): 41.3 ± 1.2 pg/mL
IL-6 level ([1]; Donor 1, 300 ng/mL): 71 ± 4.6 pg/mL
IL-8 level ([1]; Donor 1, 300 ng/mL): 17425 ± 680 pg/mL
TNFα level ([1]; Donor 1, 300 ng/mL): 267.5 ± 11.9 pg/mL
IL-1β level ([1]; Donor 2, 3 ng/mL): 21.7 ± 7.5 pg/mL
IL-6 level ([1]; Donor 2, 3 ng/mL): 30.4 ± 11.8 pg/mL
IL-8 level ([1]; Donor 2, 3 ng/mL): 7885 ± 2516 pg/mL
TNFα level ([1]; Donor 2, 3 ng/mL): 109.5 ± 29.3 pg/mL
IL-1β level ([1]; Donor 2, 30 ng/mL): 71.2 ± 6.0 pg/mL
IL-6 level ([1]; Donor 2, 30 ng/mL): 23.6 ± 0.8 pg/mL
IL-8 level ([1]; Donor 2, 30 ng/mL): 28176 ± 37 pg/mL
TNFα level ([1]; Donor 2, 30 ng/mL): 354.2 ± 6.3 pg/mL
IL-1β level ([1]; Donor 2, 300 ng/mL): 137.8 ± 10.9 pg/mL
IL-6 level ([1]; Donor 2, 300 ng/mL): 69.3 ± 1.8 pg/mL
IL-8 level ([1]; Donor 2, 300 ng/mL): 32925 ± 552 pg/mL
TNFα level ([1]; Donor 2, 300 ng/mL): 631.6 ± 16.9 pg/mL
scarring of the healed site [2]: minimal scarring
diameter of affected area of skin [2]: approximately 1 cm
Cell count as % of control (Control = no compounds added) [3]: 350 ± 101%
Differentiation endpoint (endpoint concentration in dilution series for induction of macrophage phenotype) [4]: 1 ng/mL

CCCCCC(=O)OC1C(C)C2(O)C(C3OC3(CO)C(O)C3(O)C(=O)C(C)=CC32)C2C(C)(C)C12OC(=O)C(C)CC (centres unmarked) [Compound 5, 12-hexanoyl-13-(2-methylbutanoyl)-6,7-epoxy-4,5,9,12,13,20-hexahydroxy-1-tigliaen-3-one]
IL-1β level ([1]; Donor 1, 3 ng/mL): 2.1 ± 0.1 pg/mL
IL-6 level ([1]; Donor 1, 3 ng/mL): 12.4 ± 0.2 pg/mL
IL-8 level ([1]; Donor 1, 3 ng/mL): 4924 ± 366 pg/mL
TNFα level ([1]; Donor 1, 3 ng/mL): 85.8 ± 8.4 pg/mL
IL-1β level ([1]; Donor 1, 30 ng/mL): 15.7 ± 0.9 pg/mL
IL-6 level ([1]; Donor 1, 30 ng/mL): 33.6 ± 0.6 pg/mL
IL-8 level ([1]; Donor 1, 30 ng/mL): 17190 ± 55 pg/mL
TNFα level ([1]; Donor 1, 30 ng/mL): 289.9 ± 18.6 pg/mL
IL-1β level ([1]; Donor 1, 300 ng/mL): 44 ± 1.6 pg/mL
IL-6 level ([1]; Donor 1, 300 ng/mL): 77.5 ± 9.1 pg/mL
IL-8 level ([1]; Donor 1, 300 ng/mL): 17275 ± 40 pg/mL
TNFα level ([1]; Donor 1, 300 ng/mL): 306.4 ± 9.0 pg/mL
IL-1β level ([1]; Donor 2, 3 ng/mL): 8.1 ± 2.8 pg/mL
IL-6 level ([1]; Donor 2, 3 ng/mL): 14.9 ± 1.1 pg/mL
IL-8 level ([1]; Donor 2, 3 ng/mL): 4765 ± 999 pg/mL
TNFα level ([1]; Donor 2, 3 ng/mL): 53.9 ± 9.0 pg/mL
IL-1β level ([1]; Donor 2, 30 ng/mL): 43.6 ± 6.1 pg/mL
IL-6 level ([1]; Donor 2, 30 ng/mL): 12.5 ± 1.2 pg/mL
IL-8 level ([1]; Donor 2, 30 ng/mL): 26288 ± 260 pg/mL
TNFα level ([1]; Donor 2, 30 ng/mL): 223 ± 11.2 pg/mL
IL-1β level ([1]; Donor 2, 300 ng/mL): 114.9 ± 2.4 pg/mL
IL-6 level ([1]; Donor 2, 300 ng/mL): 51.9 ± 1.3 pg/mL
IL-8 level ([1]; Donor 2, 300 ng/mL): 33870 ± 2532 pg/mL
TNFα level ([1]; Donor 2, 300 ng/mL): 620.9 ± 66.5 pg/mL
scarring of the healed site [2]: minimal scarring
diameter of affected area of skin [2]: approximately 1 cm
Cell count as % of control (Control = no compounds added) [3]: 218 ± 21%
% closure compared to control ([5]; 30 ng/mL): 209%
% closure compared to control ([5]; 200 ng/mL): 300%
Differentiation endpoint (endpoint concentration in dilution series for induction of macrophage phenotype) [4]: 1 ng/mL

12,13-dibutanoyl-6,7-epoxy-4,5,9,12,13,20-hexahydroxy-1-tigliaen-3-one [Compound 27]
% closure compared to control ([6]; 1000 ng/mL): 158%
% closure compared to control ([5]; 2000 ng/mL): 130%

CCCC(=O)OC1C(C)C2(O)C(C3OC3(CO)C(O)C3(O)C(=O)C(C)=CC32)C2C(C)(C)C12OC(=O)C(C)CC (centres unmarked) [Compound 8, 12-butanoyl-13-(2-methylbutanoyl)-6,7-epoxy-4,5,9,12,13,20-hexahydroxy-1-tigliaen-3-one]
% closure compared to control ([6]; 200 ng/mL): 190%
Differentiation endpoint (endpoint concentration in dilution series for induction of macrophage phenotype) [4]: 10 ng/mL
